Data reported in PubChem BioAssay (NCI).
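Cultured in 96-well plates, cells were exposed to test compound for 48 hours across five concentrations. TGI denotes the concentration required for complete inhibition of growth.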

Tests used:
Assay in all cases: DTP human tumour cell line panel, 48 h
LOX IMVI melanoma = tested on: LOX IMVI melanoma
UACC-62 melanoma = tested on: UACC-62 melanoma
HL-60(TB) leukemia = tested on: HL-60(TB) leukemia
NCI-H23 lung = tested on: NCI-H23 lung
786-0 renal = tested on: 786-0 renal
TK-10 renal = tested on: TK-10 renal
UACC-257 melanoma = tested on: UACC-257 melanoma
SF-295 CNS = tested on: SF-295 CNS
MOLT-4 leukemia = tested on: MOLT-4 leukemia
CAKI-1 renal = tested on: CAKI-1 renal
CCRF-CEM leukemia = tested on: CCRF-CEM leukemia
SK-MEL-28 melanoma = tested on: SK-MEL-28 melanoma
ACHN renal = tested on: ACHN renal
MDA-MB-231 breast = tested on: MDA-MB-231 breast
SR leukemia = tested on: SR leukemia
HOP-92 NSCLC = tested on: HOP-92 NSCLC
HOP-62 NSCLC = tested on: HOP-62 NSCLC
UO-31 renal = tested on: UO-31 renal
OVCAR-5 ovarian = tested on: OVCAR-5 ovarian
MDA-MB-435 = tested on: MDA-MB-435
OVCAR-3 ovarian = tested on: OVCAR-3 ovarian
NCI-H522 lung = tested on: NCI-H522 lung
HCC-2998 colon = tested on: HCC-2998 colon
HS 578T breast = tested on: HS 578T breast
T-47D breast = tested on: T-47D breast
HCT-15 colon = tested on: HCT-15 colon
EKVX NSCLC = tested on: EKVX NSCLC
HT29 colon = tested on: HT29 colon
DU-145 prostate = tested on: DU-145 prostate
MDA-N = tested on: MDA-N
NCI/ADR-RES ovarian = tested on: NCI/ADR-RES ovarian
IGROV1 ovarian = tested on: IGROV1 ovarian
COLO 205 colon = tested on: COLO 205 colon
RPMI-8226 leukemia = tested on: RPMI-8226 leukemia
RXF 393 renal = tested on: RXF 393 renal
OVCAR-4 ovarian = tested on: OVCAR-4 ovarian
MCF7 breast = tested on: MCF7 breast
SF-539 CNS = tested on: SF-539 CNS
NCI-H460 lung = tested on: NCI-H460 lung
SK-MEL-2 melanoma = tested on: SK-MEL-2 melanoma
SW-620 colon = tested on: SW-620 colon
M14 melanoma = tested on: M14 melanoma
SF-268 CNS = tested on: SF-268 CNS
OVCAR-8 ovarian = tested on: OVCAR-8 ovarian
MALME-3M melanoma = tested on: MALME-3M melanoma
KM12 colon = tested on: KM12 colon
SNB-19 CNS = tested on: SNB-19 CNS
SK-OV-3 ovarian = tested on: SK-OV-3 ovarian
SN12C renal = tested on: SN12C renal
K-562 leukemia = tested on: K-562 leukemia
A498 renal = tested on: A498 renal
SK-MEL-5 melanoma = tested on: SK-MEL-5 melanoma
PC-3 prostate = tested on: PC-3 prostate
BT-549 breast = tested on: BT-549 breast
A549 NSCLC = tested on: A549 NSCLC
U251 CNS = tested on: U251 CNS
HCT-116 colon = tested on: HCT-116 colon
SNB-75 CNS = tested on: SNB-75 CNS
NCI-H226 lung = tested on: NCI-H226 lung

O=C(/C=C/C(=O)N1CCCC1)N1CCCC1
TGI (LOX IMVI melanoma): > 100 µM | TGI (UACC-62 melanoma): > 100 µM | TGI (HL-60(TB) leukemia): > 100 µM | TGI (NCI-H23 lung): > 100 µM | TGI (786-0 renal): > 100 µM | TGI (TK-10 renal): > 100 µM | TGI (UACC-257 melanoma): > 100 µM | TGI (SF-295 CNS): > 100 µM | TGI (MOLT-4 leukemia): > 100 µM | TGI (CAKI-1 renal): > 100 µM | TGI (CCRF-CEM leukemia): > 100 µM | TGI (SK-MEL-28 melanoma): > 100 µM | TGI (ACHN renal): > 100 µM | TGI (MDA-MB-231 breast): > 100 µM | TGI (SR leukemia): > 100 µM | TGI (HOP-92 NSCLC): > 100 µM | TGI (HOP-62 NSCLC): > 100 µM | TGI (UO-31 renal): > 100 µM | TGI (OVCAR-5 ovarian): > 100 µM | TGI (MDA-MB-435): > 100 µM | TGI (OVCAR-3 ovarian): > 100 µM | TGI (NCI-H522 lung): > 100 µM | TGI (HCC-2998 colon): > 100 µM | TGI (HS 578T breast): > 100 µM | TGI (T-47D breast): > 100 µM | TGI (HCT-15 colon): > 100 µM | TGI (EKVX NSCLC): > 100 µM | TGI (HT29 colon): > 100 µM | TGI (DU-145 prostate): > 100 µM | TGI (MDA-N): > 100 µM | TGI (NCI/ADR-RES ovarian): > 100 µM | TGI (IGROV1 ovarian): > 100 µM | TGI (COLO 205 colon): > 100 µM | TGI (RPMI-8226 leukemia): > 100 µM | TGI (RXF 393 renal): > 100 µM | TGI (OVCAR-4 ovarian): > 100 µM | TGI (MCF7 breast): > 100 µM | TGI (SF-539 CNS): > 100 µM | TGI (NCI-H460 lung): > 100 µM | TGI (SK-MEL-2 melanoma): > 100 µM | TGI (SW-620 colon): > 100 µM | TGI (M14 melanoma): > 100 µM | TGI (SF-268 CNS): > 100 µM | TGI (OVCAR-8 ovarian): > 100 µM | TGI (MALME-3M melanoma): > 100 µM | TGI (KM12 colon): > 100 µM | TGI (SNB-19 CNS): > 100 µM | TGI (SK-OV-3 ovarian): > 100 µM | TGI (SN12C renal): > 100 µM | TGI (K-562 leukemia): > 100 µM | TGI (A498 renal): > 100 µM | TGI (SK-MEL-5 melanoma): > 100 µM | TGI (PC-3 prostate): > 100 µM | TGI (BT-549 breast): > 100 µM | TGI (A549 NSCLC): > 100 µM | TGI (U251 CNS): > 100 µM | TGI (HCT-116 colon): > 100 µM

Cc1cc2ncn(C3CCCCO3)c2cc1C (stereo not drawn)
TGI (LOX IMVI melanoma): > 100 µM | TGI (UACC-62 melanoma): > 100 µM | TGI (HL-60(TB) leukemia): > 100 µM | TGI (NCI-H23 lung): > 100 µM | TGI (SNB-75 CNS): > 100 µM | TGI (786-0 renal): > 100 µM | TGI (TK-10 renal): > 100 µM | TGI (UACC-257 melanoma): > 100 µM | TGI (SF-295 CNS): > 100 µM | TGI (MOLT-4 leukemia): > 100 µM | TGI (CAKI-1 renal): > 100 µM | TGI (CCRF-CEM leukemia): > 100 µM | TGI (SK-MEL-28 melanoma): > 100 µM | TGI (ACHN renal): > 100 µM | TGI (MDA-MB-231 breast): > 100 µM | TGI (HOP-92 NSCLC): > 100 µM | TGI (NCI-H226 lung): > 100 µM | TGI (HOP-62 NSCLC): > 100 µM | TGI (UO-31 renal): 75.1 µM | TGI (OVCAR-5 ovarian): > 100 µM | TGI (MDA-MB-435): > 100 µM | TGI (OVCAR-3 ovarian): > 100 µM | TGI (NCI-H522 lung): > 100 µM | TGI (HCC-2998 colon): > 100 µM | TGI (HS 578T breast): > 100 µM | TGI (T-47D breast): > 100 µM | TGI (HCT-15 colon): > 100 µM | TGI (EKVX NSCLC): > 100 µM | TGI (HT29 colon): > 100 µM | TGI (DU-145 prostate): > 100 µM | TGI (MDA-N): > 100 µM | TGI (NCI/ADR-RES ovarian): > 100 µM | TGI (IGROV1 ovarian): > 100 µM | TGI (COLO 205 colon): > 100 µM | TGI (RPMI-8226 leukemia): > 100 µM | TGI (RXF 393 renal): > 100 µM | TGI (OVCAR-4 ovarian): > 100 µM | TGI (MCF7 breast): > 100 µM | TGI (SF-539 CNS): > 100 µM | TGI (SK-MEL-2 melanoma): > 100 µM | TGI (SW-620 colon): > 100 µM | TGI (M14 melanoma): > 100 µM | TGI (SF-268 CNS): > 100 µM | TGI (OVCAR-8 ovarian): > 100 µM | TGI (MALME-3M melanoma): > 100 µM | TGI (KM12 colon): > 100 µM | TGI (SNB-19 CNS): > 100 µM | TGI (SK-OV-3 ovarian): > 100 µM | TGI (SN12C renal): > 100 µM | TGI (K-562 leukemia): > 100 µM | TGI (SK-MEL-5 melanoma): > 100 µM | TGI (PC-3 prostate): > 100 µM | TGI (BT-549 breast): > 100 µM | TGI (A549 NSCLC): > 100 µM | TGI (U251 CNS): > 100 µM | TGI (HCT-116 colon): > 100 µM
